Ends that are not written are not given here.

One assay concerns F. nucleatum DSM15643. As to the kind of experiment: Well diffusion assay (WDA) of purified nisin peptides. In kind it is cell-based, Fusobacterium nucleatum. Details: dose or concentration left out as unconfirmed. Background: Agar diffusion results depend on both activity and mobility in agar.
Another assay relates to L. bulgaricus DPC5383. In words: Well diffusion assay (WDA) of purified nisin peptides and CFS. Conditions: semi-pure nisin G and pure nisin A. Also on record: dose or concentration left out as unconfirmed. In kind it is cell-based, Lactobacillus delbrueckii ssp. bulgaricus. As for the experimental part:
The culture was centrifuged at 7,871 g for 20 minutes and cells separated from the supernatant. The cell pellet was resuspended in 300 ml of 70% 2 propanol 0.1% TFA (IPA) and stirred at room temperature for 3-4 hours. The resulting suspension was centrifuged again, and the supernatant retained for purification of the antimicrobial. […] The IPA was removed by rotary evaporation and the sample applied to a 12 ml, 2 g Strata-E C18 SPE column pre-equilibrated (Phenomenex, Cheshire, UK) with methanol and water. The column was washed with 24 ml 30% ethanol and then 24 ml 70% 2-propanol 0.1% TFA. […] The IPA was removed from the C18 SPE IPA eluent by rotary evaporation (Buchi Labortechnik AG; Flawil, Switzerland) and the resulting sample applied to a semi prep Jupiter Proteo (10×250 mm, […], 90 Å) Reversed Phase HPLC column running a 30-50% acetonitrile 0.1% TFA gradient at 2.5 mL/min where buffer A was 0.1% TFA and buffer B was 100% acetonitrile 0.1% TFA. […] Bioactive fractions were pooled and lyophilized using a Genevac lyophiliser (Suffolk, UK).

As for “nisin A (ITSISLCTPGCKTGALMGCNMKTATCHCSIHVSK; also: lantibiotic, modified residues and rings not given here; UniProt P13068 24-57, looked up) [prototypical broad spectrum lantibiotic, purified from nisinA®P (Handary) by reversed phase HPLC, reference compound]”, in the assay on F. nucleatum DSM15643, the “Zone of inhibition (area of zone of inhibition minus area of well)” value stood at 395.8 mm^2.
As to nisin G, the “Zone of inhibition (area of zone of inhibition minus area of well)” value in the assay on F. nucleatum DSM15643 is 37.7 mm^2. The “Antimicrobial activity, comparison of size of zones of inhibition (in words)” value in the assay with L. bulgaricus DPC5383 is “less than nisin A”.

(Values after patent publication US20250129328A1, “AN ISOLATED S. SALIVARIUS STRAIN AND ITS USE AS AN ANTIMICROBIAL PRODUCING PROBIOTIC” (priority 2021, published 2025).)
